Experimental data: patent publication US9896491B2, “Composition for treatment of multiple sclerosis” (LIFEBIO LABORATORIES LLC, priority 2009, dated 2018)
Where two headings read alike, the source gives them in different places.

Legend:
ESAMBPCAA [1] = assay: ESAMBPCAA mediated MBP hydrolysis in serum samples of progressive MS patients in presence of test substances; type: biochemical, human; conditions: for suppressive effect on MBP-specific auto antibody mediated hydrolysis: 100 nM, summary of Table 3; for MBP-specific auto antibody mediated hydrolysis: test substance 100 nM
Protocol: (§1) MBP hydrolysis by anti MBP auto antibodies was assayed as follows: Purified antibodies (0.1-1 μg) were incubated at 37° C. for 14 h in the final volume of 12.5 μl PBS, 0.02% NaN3 containing 1-2 μg of MBP. The samples were mixed with Laemmli's buffer. The extent of MBP degradation was visualized by SDS-PAGE in Tris-glycine and Tricine buffer systems. For quantitative MBP degradation assay, MBP (10 μM) was incubated at 37° C. with antibodies (60 nM) in 0.1 ml of PBS, 0.02% NaN3 for 12 h. The reaction was stopped by adding 10% TFA up to pH 2.5. The samples were further chromatographed on column C4 4.0/150 (Waters). The amount of non-cleaved MBP was calculated by absorbance monitoring at 280 nm.
Serum samples collected from 5 patients suffering from progressive MS were quantified for ESAMBPCAA mediated MBP hydrolysis as specified in Example 1 in presence of following substances: […]

ESAMBPCAA [2] = assay: ESAMBPCAA mediated MBP hydrolysis in serum of treated EAE DA rats; type: in vivo; conditions: days 8-12; for rates of MBP-specific auto antibody mediated hydrolysis: 120 μg daily intranasal, median for 6 animals; for suppression of MBP-specific auto antibody mediated hydrolysis: intranasal, dose-dependent for SEQ ID NO: 2
[3] = test system: Experimental Allergic Encephalomyelitis (EAE) in DA rats; assay: MDS score in EAE DA rats; type: in vivo; conditions: intranasal, days 8-12; FIG. 4; dose-dependent for SEQ ID NO: 2
[4] = test system: progressive multiple sclerosis patients; conditions: 500 mg intravenously every six months; cited from earlier work
[5] = test system: Experimental MS (Theiler's Virus Infection) in SJL mice; assay: Experimental MS (Theiler's Virus Infection): disease manifestation and MDS score; type: in vivo; conditions: days 14-24; for % Animals affected with disease at day 100: 30 mice per group
Protocol: (§2) The BeAn strain of TMEV used in this study was generated and propagated in BHK-21 cells grown in Dulbecco's modified Eagle's medium supplemented with 7.5% donor calf serum. For i.c. infection, 30 μl of virus solution (0.2×10^6 to 6×10^6 PFU) was injected into the right cerebral hemisphere of 6- to 8-week-old SJL mice (8 animals per group) anesthetized with isoflurane. Clinical symptoms (MDS score) of disease were assessed weekly on the following grading scale: grade 0, no clinical signs; grade 1, mild waddling gait or flaccid tail; grade 2, severe waddling gait; grade 3, moderate hind limb paresis; and grade 4, severe hind limb paralysis. Serum samples collected from animals were quantified for ESAMBPCAA mediated MBP hydrolysis as specified in Example 1
(§3) At day 14 following infection mice were divided into 6 groups ([…]) and treated during 10 days (days 14-24) according following schedule: […]

[6] = test system: Experimental Allergic Encephalomyelitis (EAE) in Dark Agouti (DA) Rats; assay: EAE induced by MBP 63-81 in DA rats: clinical signs score; type: in vivo; conditions: for therapeutic effect: 150 μg/rat/day SC during 6 days; for Clinical signs score on day 23 after induction (mean): 150 μg/rat/day SC during 6 days from day 9-11 after EAE induction, score 0-5
Protocol: Female Dark Agouti (DA) Rats, 8-9 weeks of age, about 110-145 g of weight were used as test animals.
For induction of Experimental Allergic Encephalomyelitis (EAE), rats were injected intradermally at the base of the tail with a total volume of 200 μl of inoculum containing 50 μg of MBP 63-81 (ANASPEC), in saline mixed (1:1) with Complete Freund Adjuvant, (IFA, Sigma), and 1 mg killed M. tuberculosis strain (strain H37 RA; Difco Laboratories, Detroit, Mich.). Beginning 24 hours after EAE induction the rats were followed up daily. On day 9 after the after EAE induction more than 50% of the rats developed signs of paralysis. The animals with multiple sclerosis signs were separated into 10 groups for beginning of treatment. Prior to treatment, blood was collected from 2 rats from each group. At day 9 and 11 after EAE induction, 90% of rats developed signs of EAE.
9-11 days after EAE induction the animals were divided into 9 groups (5-6 rats in each). Each group of rats was treated subcutaneously once daily with different claimed oligopeptide or theirs combinations (equimolar mix) (150 μg) or doses of positive control item (Glatiramer acetate, Copaxone, Teva) or negative control item (0.9% Sodium chloride solution), during 6 days as follows:
Copaxone, claimed oligopeptide and combinations thereof (Mechanical mix) were diluted with 0.9% Sodium chloride to a concentration of 450 μg/ml. Volume of 0.33 ml (150 μg/rat/day) was injected SC during 6 days.
After 6 days of the injections cycle the animals were maintained and followed up till day 28th post EAE induction. Clinical signs score was performed daily during study periods. Animals were observed individually during all study periods. In cases of extended observation period clinical signs were recorded once daily. Observations included changes in the fur, eyes, respiratory rate, vocalization, paralysis, activity and behavior pattern. Score of paralysis signs related to MS of each animal was done daily (during all study periods).
Score gradation was as follows: 0—Normal; 1—Tail weakness; 2—Hind leg weakness or paralysis; 3—Hind leg paralysis, dragging hind limbs; 4—Complete paralysis, unable to move; 5—Death.

ESAMBPCAA [7] = assay: ESAMBPCAA mediated MBP hydrolysis in serum of treated TMEV-infected SJL mice; type: in vivo; conditions: days 14-24
Protocol: as §1, §2, §3

antibodies to MBP = conditions: in vitro and in vivo (in blood of MS-patients); cited from earlier work
[8] = test system: secondary progressive MS patients; conditions: phase I; cited from earlier work
[9] = test system: relapsing-remitting multiple sclerosis patients; conditions: Neurology 1995; 45: 1268; cited from earlier work
CD20+ B lymphocytes = conditions: relapsing-remitting multiple sclerosis (RRMS) patients; cited from earlier work
[10] = test system: relapsing-remitting multiple sclerosis patients; conditions: Neurology 1993; 43: 662-7; cited from earlier work
[11] = 20 μg of each oligopeptide daily subcutaneous

Molecule: APKRGSGKDSH [A4]
- suppressive effect on MBP-specific auto antibody mediated hydrolysis (ESAMBPCAA [1]): potent suppressive effect
- MBP-specific auto antibody mediated hydrolysis (ESAMBPCAA [1]; Patient 1): 12.1 ± 3.6 pmol/min/nmol
- MBP-specific auto antibody mediated hydrolysis (ESAMBPCAA [1]; Patient 2): 15.6 ± 2.9 pmol/min/nmol
- MBP-specific auto antibody mediated hydrolysis (ESAMBPCAA [1]; Patient 3): 14.3 ± 4.4 pmol/min/nmol
- MBP-specific auto antibody mediated hydrolysis (ESAMBPCAA [1]; Patient 4): 15.8 ± 4.9 pmol/min/nmol
- MBP-specific auto antibody mediated hydrolysis (ESAMBPCAA [1]; Patient 5): 13.3 ± 5.9 pmol/min/nmol
- rates of MBP-specific auto antibody mediated hydrolysis (ESAMBPCAA [2]; Day 8 (start of treatment)): 49.3 ± 4.9 pmol/min/nmol
- rates of MBP-specific auto antibody mediated hydrolysis (ESAMBPCAA [2]; Day 16): 45.9 ± 7.1 pmol/min/nmol
- rates of MBP-specific auto antibody mediated hydrolysis (ESAMBPCAA [2]; Day 24): 45.1 ± 6.3 pmol/min/nmol
- suppression of MBP-specific auto antibody mediated hydrolysis (ESAMBPCAA [2]): active in suppression
- suppression of MDS score [3]: active in suppression

Molecule: DENPVVHFFKNIVTPRT [MBP8298, synthetic peptide, amino acid residues 82-98 of MBP]
- responders on the treatment [4]: responders on the treatment with MBP8298 are the patients with HLA heliotypes DR2 and/or DR4 only

Molecule: GFGYGGRASDYKSAHK [SEQ ID NO: 3]
- therapeutic effect [5, 11]: moderate therapeutic effect
- % Animals affected with disease at day 100 [5, 11]: 25(30) %
- therapeutic effect [6]: moderate therapeutic effect
- Clinical signs score on day 23 after induction (mean) [6]: 0.9
- ESAMBPCAA activity at day 100 (ESAMBPCAA [7]; [11]): 40 ± 3.1 pmol/min/nmol
- suppression of MBP-specific auto antibody mediated hydrolysis (ESAMBPCAA [7]; [11]): do not affect

Molecule: MBP 35-58: non-binding, control peptide, human MBP 35-58 (LSRTTSEDNEVFGEADANQNNGTS; UniProt P02686 35-58, looked up, fragment)
- effect on free and bound antibodies to MBP (antibodies to MBP): no effect

Molecule: MBP 75-95: soluble synthetic peptide, residues 75-95 of human MBP (WO 98/45327) (NAWQDAHPADPGSRPHLIRLF; UniProt P02686 75-95, looked up, fragment)
- effect on free and bound antibodies to MBP (antibodies to MBP): showed its ability to bound free antibodies to MBP both in vitro and in vivo

Molecule: MBP 84-102: MBP 84-102 fragment (U.S. Pat. No. 5,858,980) (DPGSRPHLIRLFSRDAPGR; UniProt P02686 84-102, looked up, fragment)
- treatment efficacy (Expanded Disability Status Scale, Nine Hole Peg Test, new lesions by Magnetic Resonance Imaging) [8]: No treatment efficacy were detected

Molecule: QGTLSKIFKLGGRDSRSGSPMARR [SEQ ID NO: 4]
- therapeutic effect [5, 11]: moderate therapeutic effect
- % Animals affected with disease at day 100 [5, 11]: 27(30) %
- therapeutic effect [6]: moderate therapeutic effect
- Clinical signs score on day 23 after induction (mean) [6]: 0.8
- ESAMBPCAA activity at day 100 (ESAMBPCAA [7]; [11]): 35.3 ± 5.1 pmol/min/nmol
- suppression of MBP-specific auto antibody mediated hydrolysis (ESAMBPCAA [7]; [11]): do not affect

Molecule: RGAPKRGSGKRGAPKRGSGKRGAPKRGSGKRGAPKRGSGKRGAPKRGSGKRGAPKRGSGK [A6]
- suppressive effect on MBP-specific auto antibody mediated hydrolysis (ESAMBPCAA [1]): potent suppressive effect
- MBP-specific auto antibody mediated hydrolysis (ESAMBPCAA [1]; Patient 1): 7.7 ± 3.3 pmol/min/nmol
- MBP-specific auto antibody mediated hydrolysis (ESAMBPCAA [1]; Patient 2): 22.3 ± 4.2 pmol/min/nmol
- MBP-specific auto antibody mediated hydrolysis (ESAMBPCAA [1]; Patient 3): 20.1 ± 3.9 pmol/min/nmol
- MBP-specific auto antibody mediated hydrolysis (ESAMBPCAA [1]; Patient 4): 21.5 ± 6.6 pmol/min/nmol
- MBP-specific auto antibody mediated hydrolysis (ESAMBPCAA [1]; Patient 5): 5.0 ± 1.8 pmol/min/nmol
- rates of MBP-specific auto antibody mediated hydrolysis (ESAMBPCAA [2]; Day 8 (start of treatment)): 45.7 ± 6.5 pmol/min/nmol
- rates of MBP-specific auto antibody mediated hydrolysis (ESAMBPCAA [2]; Day 16): 48.1 ± 7.4 pmol/min/nmol
- rates of MBP-specific auto antibody mediated hydrolysis (ESAMBPCAA [2]; Day 24): 39.4 ± 4.6 pmol/min/nmol
- suppression of MBP-specific auto antibody mediated hydrolysis (ESAMBPCAA [2]): active in suppression
- suppression of MDS score [3]: active in suppression

Molecule: SGKDS [A5]
- MBP-specific auto antibody mediated hydrolysis (ESAMBPCAA [1]; Patient 1): 57 ± 4.1 pmol/min/nmol
- MBP-specific auto antibody mediated hydrolysis (ESAMBPCAA [1]; Patient 2): 59.7 ± 5.7 pmol/min/nmol
- MBP-specific auto antibody mediated hydrolysis (ESAMBPCAA [1]; Patient 3): 44.2 ± 6.6 pmol/min/nmol
- MBP-specific auto antibody mediated hydrolysis (ESAMBPCAA [1]; Patient 4): 45.5 ± 3.8 pmol/min/nmol
- MBP-specific auto antibody mediated hydrolysis (ESAMBPCAA [1]; Patient 5): 55.7 ± 6.1 pmol/min/nmol

Molecule: glatiramer acetate [A2, reference compound]
- Adverse Reactions [9]: Low
- Clinical Observations: Decrease of relapse frequency [9]: frequency—29%;
- Clinical Observations: EDSS score progression [9]: Slowing EDSS
- MRI Data: decrease of active lesions [9]: No statistical
- % Animals affected with disease at day 100 ([5]; 30 μg daily subcutaneous): 25(30) %
- MBP-specific auto antibody mediated hydrolysis (ESAMBPCAA [1]; Patient 1): 62.5 ± 1.2 pmol/min/nmol
- MBP-specific auto antibody mediated hydrolysis (ESAMBPCAA [1]; Patient 2): 72.6 ± 7.7 pmol/min/nmol
- MBP-specific auto antibody mediated hydrolysis (ESAMBPCAA [1]; Patient 3): 51.2 ± 3.5 pmol/min/nmol
- MBP-specific auto antibody mediated hydrolysis (ESAMBPCAA [1]; Patient 4): 47.7 ± 7.9 pmol/min/nmol
- MBP-specific auto antibody mediated hydrolysis (ESAMBPCAA [1]; Patient 5): 65.7 ± 5.4 pmol/min/nmol
- Clinical signs score on day 23 after induction (mean) [6]: 1.1
- rates of MBP-specific auto antibody mediated hydrolysis (ESAMBPCAA [2]; Day 8 (start of treatment)): 51.4 ± 8.2 pmol/min/nmol
- rates of MBP-specific auto antibody mediated hydrolysis (ESAMBPCAA [2]; Day 16): 55.4 ± 5.7 pmol/min/nmol
- rates of MBP-specific auto antibody mediated hydrolysis (ESAMBPCAA [2]; Day 24): 62.2 ± 5.7 pmol/min/nmol
- ESAMBPCAA activity at day 100 (ESAMBPCAA [7]; 30 μg daily subcutaneous): 39.8 ± 4.1 pmol/min/nmol

Molecule: rituximab: monoclonal antibody, which selectively targets and depletes CD20+ B lymphocytes
- safety and efficacy of therapy (CD20+ B lymphocytes): appears safe and effective to some extend

B1: Beta-Interferon: Beta-Interferon, existing standard of MS therapy (protein, UniProt P01574 22-187, looked up, variant C17S)
Interferon beta: MSYNLLGFLQRSSNFQSQKLLWQLNGRLEYCLKDRMNFDIPEEIKQLQQFQKEDAALTIYEMLQNIFAIFRQDSSSTGWNETIVENLLANVYHQINHLKTVLEEKLEKEDFTRGKLMSSLHLKRYYGRILHYLKAKEYSHCAWTIVRVEILRNFYFINRLTGYLRN
modifications: interferon beta-1b, lacks N-terminal Met
notes: Beta-Interferon, existing standard of MS therapy
- Adverse Reactions [10]: High
- Clinical Observations: Decrease of relapse frequency [10]: frequency—83%;
- Clinical Observations: EDSS score progression [10]: No slowing EDSS
- MRI Data: decrease of active lesions [10]: 83% decrease
